Test results reported in the supplement of paper PMC10307832.

Assays:
Experiment in all cases: relative viability (nuclei count vs DMSO), 5 days (fraction); higher = more cells survive
[1] = compound: O=C(C[C@H]1NCCC[C@@H]1O)Cn1cnc2cc(Br)c(Cl)cc2c1=O (racemic) [Halofuginone] + COc1cc2c(Oc3ccc(NC(=O)C4(C(=O)Nc5ccc(F)cc5)CC4)cc3F)ccnc2cc1OCCCN1CCOCC1 [Foretinib] (partner 0.25 µM)
In short: (§1)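 One day after seeding in 1536-well plates, lung cancer cell lines were dosed by pin tool. Dosing was either single-drug or a fixed anchor-drug dose plus five library-drug doses (not always all listed) in √10 steps. After 5 days, nuclei were stained in one fix-and-stain step and counted on 4× images, and relative viability is the nuclei count of treated wells over that of vehicle wells, given as the median of duplicate plates.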

[2] = compound: O=C(C[C@H]1NCCC[C@@H]1O)Cn1cnc2cc(Br)c(Cl)cc2c1=O (racemic) [Halofuginone] + O=C(CCCCCCC(=O)Nc1ccccc1)NO [Vorinostat] (partner 1 µM)
In short: as §1

[3] = compound: O=C(C[C@H]1NCCC[C@@H]1O)Cn1cnc2cc(Br)c(Cl)cc2c1=O (racemic) [Halofuginone] + CS(=O)(=O)CCNCc1ccc(-c2ccc3ncnc(Nc4ccc(OCc5cccc(F)c5)c(Cl)c4)c3c2)o1 [Lapatinib] (partner 2 µM)
In short: as §1

[4] = compound: O=C(C[C@H]1NCCC[C@@H]1O)Cn1cnc2cc(Br)c(Cl)cc2c1=O (racemic) [Halofuginone] + NC(=O)Nc1cc(-c2cccc(F)c2)sc1C(=O)N[C@H]1CCCNC1 [AZD7762] (partner 0.2 µM)
In short: as §1

Cell Line | relative viability ([1]; first compound 0.001 µM) | relative viability ([1]; first compound 0.003162 µM) | relative viability ([1]; first compound 0.01 µM) | relative viability ([1]; first compound 0.03162 µM) | relative viability ([1]; first compound 0.1 µM) | relative viability ([2]; first compound 0.001 µM) | relative viability ([2]; first compound 0.003162 µM) | relative viability ([2]; first compound 0.01 µM) | relative viability ([2]; first compound 0.03162 µM) | relative viability ([2]; first compound 0.1 µM) | relative viability ([3]; first compound 0.001 µM) | relative viability ([3]; first compound 0.003162 µM) | relative viability ([3]; first compound 0.01 µM) | relative viability ([3]; first compound 0.03162 µM) | relative viability ([3]; first compound 0.1 µM) | relative viability ([4]; first compound 0.001 µM) | relative viability ([4]; first compound 0.003162 µM) | relative viability ([4]; first compound 0.01 µM) | relative viability ([4]; first compound 0.03162 µM) | relative viability ([4]; first compound 0.1 µM)
NCI-H1650 | 1.33 | 1.11 | 0.964 | 0.601 | 0.177 | 0.688 | 0.595 | 0.522 | 0.566 | 0.366 | 0.594 | 0.787 | 0.677 | 0.704 | 0.194 |  |  |  |  | 
NCI-H1703 | 0.301 | 0.295 | 0.363 | 0.294 | 0.337 |  |  |  |  |  | 1.15 | 1.28 | 0.95 | 0.792 | 0.427 | 0.119 | 0.121 | 0.121 | 0.13 | 0.151
NCI-H1792 |  |  |  |  |  |  |  |  |  |  | 0.897 | 0.857 | 0.896 | 0.831 | 0.994 | 0.684 | 0.722 | 0.585 | 0.541 | 0.234
NCI-H2009 | 1.21 | 1.23 | 1.13 | 1.18 | 0.775 | 0.86 | 0.703 | 0.76 | 0.703 | 0.462 | 1.06 | 1.01 | 0.887 | 0.83 | 0.409 |  |  |  |  | 
NCI-H2023 | 1.11 | 0.636 | 0.826 | 0.288 | 0.139 | 0.81 | 0.64 | 0.56 | 0.453 | 0.0822 | 0.8 | 0.809 | 0.874 | 0.494 | 0.0821 |  |  |  |  | 
NCI-H2228 | 0.908 | 1.08 | 0.777 | 0.325 | 0.146 | 0.822 | 0.807 | 0.726 | 0.424 | 0.0673 | 1.06 | 1.02 | 0.908 | 0.657 | 0.121 |  |  |  |  | 
NCI-H2342 | 1.22 | 0.984 | 0.971 | 0.963 | 1.08 | 0.649 | 0.743 | 0.725 | 0.715 | 0.737 |  |  |  |  |  | 0.458 | 0.536 | 0.507 | 0.487 | 0.588
SK-LU-1 | 0.921 | 0.8 | 0.753 | 0.759 | 0.406 | 0.835 | 0.818 | 0.839 | 0.787 | 0.368 | 0.945 | 1.04 | 0.806 | 0.787 | 0.505 |  |  |  |  | 
SK-MES-1 | 1.06 | 1.06 | 0.911 | 0.828 | 0.611 | 1.16 | 1.09 | 0.997 | 0.949 | 0.183 | 0.486 | 0.454 | 0.474 | 0.409 | 0.342 |  |  |  |  | 
SW 900 | 1.1 | 0.833 | 0.809 | 0.627 | 0.355 | 0.729 | 0.379 |  | 0.535 | 0.317 |  |  |  |  |  | 0.677 | 0.564 |  | 0.621 | 0.46
SW 1573 | 0.959 | 1.05 | 0.945 | 0.943 | 0.762 | 1.27 |  | 0.775 | 0.601 | 0.167 | 1.13 | 1.29 | 1.1 | 1.1 | 1.07 |  |  |  |  | 
